We go through two molecules from US5025024A, “Therapeutically active fluoro-substituted compound” (priority 1988, dated 1991).

The nature of data set [1]: Inhibition of Gastric Acid Secretion in the Conscious Male Rat. It counts as in vivo, male rats of the Sprague-Dawley strain. The following applies: in vivo, ratio ED50 iv/ED50 id, read-out: "Bioavailability" measured by the Rough Screening Model, Rat ED50 iv/ED50 id. As to the method:
(§1) Since the bioavailability model described above is time and labour intensive, and requires a large number of plasma analyses, also a rough screening model, based on relative potencies to inhibit acid secretion, has been used (see for instance: A. Goth, Medical Pharmacology, 7th ed., C. V. Mosby Company, Saint Louis 1974, p 19). Thus, the ratio (called "Bioavailability" in Table 3) between the ED50 at intravenous administration and the ED50 at intraduodenal administration was calculated.
(§2) The potency for inhibition of acid secretion has been measured in the male rat and the dog, both intravenously and intraduodenally. When it comes to relevance of the animal test data for potency of a given compound in man for the present type of compounds, it is believed that potency in man will correspond to a level somewhere between what is measured in the male rat and what is measured in the dog.
(§3) Inhibition of Gastric Acid Secretion in the Conscious Male Rat
(§4) Male rats of the Sprague-Dawley strain were used. They were equipped with cannulated fistulae in the stomach (lumen) and the upper part of the duodenum, for collection of gastric secretions and administration of test substances, respectively. A fourteen days recovery period after surgery was allowed before testing commenced.
(§5) Before secretory tests, the animals were deprived of food but not water for 20 h. The stomach was repeatedly washed through the gastric cannula, and 6 ml of Ringer-Glucose given s.c. Acid secretion was stimulated with a infusion during 3.5 h (1.2 ml/h, s.c.) of pentagastrin and carbachol (20 and 110 nmol/kg h, respectively), during which time gastric secretions were collected in 30-min fractions. Test substances or vehicle were given iv or id at 90 min after starting the stimulation, in a volume of 1 ml/kg. Gastric juice samples were titrated to pH 7.0 with NaOH, 0.1 mol/L, and acid output calculated as the product of titrant volume and concentration. Further calculations were based on group mean responses from 4-5 rats. The acid output during the periods after administration of test substances or vehicle were expressed as fractional responses, setting the acid output in the 30-min period preceding administration to 1.0. Percentage inhibition was calculated from the fractional responses elicited by test compound and vehicle. ED50 -values were obtained from graphical interpolation on log dose-response curves, or estimated from single-dose experiments assuming a similar slope for all dose-response curves. An estimation of the bioavailability was obtained by calculating the ratio ED50 iv/ED50 id. The results reported are based on gastric acid secretion during the second hour after drug/vehicle administration.

For data set [2], the system named is gastric acid secretion. The description is as above. It counts as in vivo, male rats of the Sprague-Dawley strain. The following applies: 2 h, pentagastrin and carbachol stimulation, second hour after administration. The procedure:
as §1, §2, §3, §4, §5

Data set [3] concerns gastric acid secretion. The data set can be described thus: Inhibition of Gastric Acid Secretion in the Conscious Dog. It counts as in vivo, Harrier dogs. The following applies: for ED50: Canis lupus familiaris, dog, histamine-stimulated, acid output 2 h after dosing. The procedure:
as §2
(§6) Inhibition of Gastric Acid Secretion and Bioavailability in the Conscious Dog
(§7) Harrier dogs of either sex were used. They were equipped with a duodenal fistula for the administration of test compounds or vehicle and a cannulated ventricular fistula for the collection of gastric secretions.
Before secretory tests the animals were fasted for about 18 h but water was freely allowed. Gastric acid secretion was stimulated by a 4 h infusion of histamine dihydrochloride (12 ml/h) at a dose producing about 80% of the individual maximal secretory response, and gastric juice collected in consecutive 30-min fractions. Test substance or vehicle was given id or iv 1 h after starting the histamine infusion, in a volume of 0.5 ml/kg body weight. The acidity of the gastric juice samples were determined by titration to pH 7.0, and the acid output calculated. The acid output in the collection periods after administration of test substance or vehicle were expressed as fractional responses, setting the acid output in the fraction preceding administration to 1.0. Percentage inhibition was calculated from fractional responses elicited by test compound and vehicle. ED50 -values were obtained by graphical interpolation on log dose-response curves, or estimated from single-dose experiments under the assumption of the same slope of the dose-response curve for all test compounds. All results reported are based on acid output 2 h after dosing.

Data set [4] is described as follows: Bioavailability in the Male Rat (AUC method). It counts as in vivo, male rats of the Sprague-Dawley strain. The following applies: id vs iv, 4 μmol/kg; for bioavailability: blood, 4 umol/kg, read-out: Bioavailability measured by the AUC-method, F %, Rat. The text has this:
The results from tests on two different animal species, rat and dog, vary in regard to measured level of bioavailability for the same compound. We believe that the rat is the more relevant species for bioavailability testing. This is based on our belief that liver metabolism has the most predominant impact upon bioavailability, and that the liver metabolic pattern in man for this type of compounds is quite similar to that of the male rat (more so than of the female rat and the dog). Moreover, test results of bioavailability in the male rat will tend to give a broader "spread" compared with the test results in the dog, and thus the male rat model will give more clear differences in bioavailability between different compounds. Stated in another way, the bioavailability as tested in the male rat can be expected to give a better estimate of the relative differences in man between different test compounds compared with the test results obtained when using the same compounds in the dog.
(§8) Bioavailability is assessed by calculating the quotient between the area under plasma concentration (AUC) curve following intraduodenal (id) administration and intravenous (iv) administration from the rat or the dog. Low, therapeutically relevant doses, were used. This method is scientifically recognized as valid for assessing bioavailability (see for instance: M. Rowland and T. N. Tozer, Clinical Pharmacokinetics, 2nd ed., Lea & Febiger, London 1989, p 42).
Bioavailability in the Male Rat
Male adult rats of the Sprague-Dawley strain were used. One day, prior to the experiments, all rats were prepared by cannulation of the left carotid artery under anaesthesia. The rats used for the intravenous experiments, were also cannulated in the jugular vein. […]
The area under the blood concentration vs time curve, AUC, was determined by the linear trapezoidal rule and extrapolated to infinity by dividing the last determined blood concentration by the elimination rate constant in the terminal phase. The systemic bioavailability (F%) following intraduodenal administration was calculated as [formula]

Data set [5] in a line: Bioavailability in the Conscious Dog (AUC method). The format is in vivo, Harrier dogs. The following applies: plasma, id vs iv, AUCid/AUCiv, read-out: Bioavailability measured by the AUC-method, F %, Dog. The procedure:
as §8, §6, §7
Blood samples for the analysis of test compound concentration in plasma were taken at intervals up to 3 h after dosing. Plasma was separated and frozen within 30 min after collection. AUC (area under the plasma concentration-time curve), extrapolated to infinite time, was calculated by the linear trapezoidal rule. The systemic bioavailability (F%) after id administration was calculated as 100×(AUCid /AUCiv).

Data set [6] is described as follows: Chemical Stability at pH 7. It counts as physicochemical. To be noted: pH 7, 37° C., aqueous buffer solution; for half-life: read-out: Chemical Stability at pH 7, half-life (t 1/2) (converted). As to the method: The chemical stability of various compounds of the invention has been followed kinetically at low concentration at 37° C. in aqueous buffer solution at different pH values. The results in Table 3 show the half life (t1/2) at pH 7, that is the time period after which half the amount of the original compound remains unchanged.

The mark [7] stands for this setting: id, read-out: Inhibition of acid secretion, Rat ED50, id.
[8] abbreviates: iv, read-out: Inhibition of acid secretion, Rat ED50, iv.

What is called ED50 is the dose that gives a 50% effect, or the effect in half of the subjects. On to `COc1ccnc(C[S+]([O-])c2nc3c(F)cccc3[nH]2)c1` (stereo not drawn) [Example 1, 4-fluoro-2-[[(4-methoxy-2-pyridinyl)methyl]sulfinyl]-1H-benzimidazole], for which the bioavailability in data set [1] stood at 40%; in data set [4] it was 96%; in data set [5], 95%. The ED50 in data set [2] (setting [7]) was 2.4 µmol/kg; in data set [2] (setting [8]), 0.96 µmol/kg; in data set [3] (id, read-out: Inhibition of acid secretion, Dog ED50, id) it was 0.9 µmol/kg; in data set [3] (iv, read-out: Inhibition of acid secretion, Dog ED50, iv) it was 0.8 µmol/kg. The “Chemical Stability at pH 7, half-life (t 1/2)” value in data set [6] came out at 23 h. Also, the half-life in data set [6] was 23 h.
`CC(C)Oc1ccnc(C[S+]([O-])c2nc3cc(F)ccc3[nH]2)c1` (stereo not drawn) [Ref., 5-fluoro-2-[[(4-isopropoxy-2-pyridinyl)methyl]-sulfinyl]-1H-benzimidazole]: the bioavailability in data set [1] stood at 45%. The ED50 in data set [2] (setting [7]) worked out at 4 µmol/kg. Further, in data set [2] (setting [8]), the ED50 was 1.8 µmol/kg. In data set [3] (Dog 1, 3 μmol/kg, id), the “inhibition (of acid secretion), Dog 1” value amounted to 95%. Moreover, the “inhibition (of acid secretion), Dog 2” value in data set [3] (Dog 2, 3 μmol/kg, id) is listed as 98%. Further, in data set [4], the bioavailability was determined as 31% and the “Bioavailability measured by the AUC-method, F %, Rat” value is recorded as 31%. Moreover, in data set [6], the “Chemical Stability at pH 7, half-life (t 1/2)” value is reported as 14 h and the half-life is 14 h.
